From article PMC9873481 (Nature, 2022) come the findings set out here.

As usually defined, the EC50 is the concentration at which the effect is half-maximal. High values mean lower potency in that assay, low ones higher potency in that assay. By stoichiometry N is commonly meant a count of units in the complex or per binding partner.

In data set [1] the target is T1, hBest2 (Homo sapiens, UniProt Q8NFU1).
T1 sequence (Q8NFU1 1-509): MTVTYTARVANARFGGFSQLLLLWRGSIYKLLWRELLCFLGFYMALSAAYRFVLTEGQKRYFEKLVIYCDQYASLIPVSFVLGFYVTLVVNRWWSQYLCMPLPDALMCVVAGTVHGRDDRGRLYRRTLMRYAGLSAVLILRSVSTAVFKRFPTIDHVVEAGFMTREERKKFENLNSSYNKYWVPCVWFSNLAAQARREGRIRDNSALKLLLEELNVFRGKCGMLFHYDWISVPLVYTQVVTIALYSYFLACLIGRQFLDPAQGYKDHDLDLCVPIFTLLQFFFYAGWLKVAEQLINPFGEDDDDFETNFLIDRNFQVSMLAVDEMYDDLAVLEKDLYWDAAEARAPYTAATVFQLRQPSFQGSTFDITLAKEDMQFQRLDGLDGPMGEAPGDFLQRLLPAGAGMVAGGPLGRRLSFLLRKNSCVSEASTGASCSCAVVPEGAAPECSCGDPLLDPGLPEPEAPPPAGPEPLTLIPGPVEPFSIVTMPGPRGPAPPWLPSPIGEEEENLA
The data set is described as follows: whole-cell patch clamp, HEK293. The format is cell-based.

Data set [2] deals with the molecule itself. In words: cryo-EM structure.

`N[C@@H](CCC(=O)O)C(=O)O` [glutamate] had an EC50 in data set [1] of 46 mM.

B1: bovine bestrophin-2, purified for cryo-EM (GFP-His tag removed) (natural protein)
chain: MTVTYTARVAKARFGGFSKLLLLWRGSIYKLLWRELLCFLGLFMALSAAYRFVLTEEQKRYFEKLVLYCDRYASLIPVSFVLGFYVTLVVHRWWNQYLSMPLTDALMCVVVGTVHGHDERGRLYRRTLMRYAGLSGVLILRSVSTAVFKRFPTIDHVVEAGFMTREERKKFENLNSSYNKYWVPCVWFCNLAAQARREGRIRDNGAFKLLLEELNVFRSKCGMLFHYDWISVPLVYTQVVTIAVYSYFLACLIGRQFLDPAQGYKDHDLDLCVPIFTLLQFFFYAGWLKVAEQLINPFGEDDDDFETNFLIDRCFQVSMLAVDEMYDDLAMLEKDLYWDAAEARAPYTAATAFLMQQPSFQGSTFDITLAKEDMQFQRQDGLEAPLNEAHGDFLQRLLPVGTGMGTGGLL
In the case of B1, the “stoichiometry N” value in data set [2] came to 5.
